# From patent publication US4732893A, “Amino-anthracenediones-platinum complexes useful as anticancer compounds” (priority 1984, dated 1988)
# Key:
# [1] = system: c-DDP resistant L-1210 leukemia; assay: c-DDP resistant L-1210 leukemia, T/C, LTS, TOX; type: in vivo, mice; conditions: for activity (in words): animals injected with cis-platin resistant leukemia cells; for TOX (3): toxic deaths
# Source text: (§1) T/C percentage represents the percentual ratio of the mean survival time of the treated animals in comparison with the mean survival time of the control animals according to the methods described in "Anthracycline antibiotics" H. S. E. R Rhadem Edit., Academic Press, 1982.
# (§2) (1) T/C: Mean survival time of treated mice/mean survival time of control
# (untreated) mice × 100. Mean survival time of treated mice is
# referred to dying animals only. N.ev.: not evaluable as consequence of th
# (2) LTS: Longterms survivors (>30 days), i.e. cured animals.
# (§3) (3) TOX: Toxic deaths are referred to animals dead before control animals
# (§4) or to animals showing macroscopic toxic symptoms without tumor.
# [2] = system: L-1210 leukemia sensitive to c-DDP; assay: second experiment: L-1210 leukemia sensitive to c-DDP, T/C, LTS, TOX; type: in vivo, mice; conditions: for percentage of survivors at 60 days: 8.7.10^-6 mol/kg; for TOX (3): toxic deaths; for T/C percentage: L-1210 leukemia (sensitive to Pt), c-DDP 7 mg/kg, BBR 1734 1.55 mg/kg, BBR 1735 8 mg/kg
# Source text: as §1
# (§5) LTS represents number of long-term (over 60 days) surviving animals with no pathologic episodes (i.e. cured animals).
# as §2
# (untreated) mice × 100.
# Mean survival time of treated mice is referred to dying animals only.
# (2) LTS: Longterm survivors (>60 days), i.e. cured animals. Mean survival
# as §3, §4
# The data reported in Table 2 are the means of two subsequent experiments.
# [3] = system: L-1210 leukemia; assay: first experiment: L-1210 leukemia in mice, T/C percentage and long term survival; type: in vivo; conditions: for Survival after 60 days: survivors/animals; for antitumor activity (in words): versus c-DDP and ligand alone
# Protocol: Pt(DMSO)Cl2 ].2HCl.H2 O (coded BBR 1651), water soluble, and cis-[1,4-bis-[2-(2-hydroxyethylamino)ethylamino]-5,8-dihydroxy-9,10-anthracenedione.PtCl2 ].2HCl.H2 O (coded BBR 1734) are tested in comparison with equimolecular dosages of 1,4-bis-[2-(2-hydroxyethylamino)ethylamino]-5,8-dihydroxy-9,10-anthracenedione (DHAQ.2HCl) and with c-DDP dosed at 7 mg/kg, against L-1210 leukemia in mice. Groups of 10 animals, treated with intraperitoneal injections of […] L-1210 cells, have been used at each dosage level, evaluating T/C percentage and long term survival, i.e. more than sixty days.
# as §1, §5
# A percentage of T/C over 120 indicates antitumoral activity; a percentage of T/C under 85 indicates toxicity.
# [4] = body weight, kidney weight and ureic nitrogen (nephrotoxicity) at LD50 doses; type: in vivo, mouse; conditions: i.v.; for general toxicity / body weight (in words) / renal toxicity (in words): LD50 doses; for % Δ of the body weight / Final body weight / Kidney weight / Kidney weight g/100 of body weight / Initial body weight / Ureic Nitrogen: dose corresponding to respective LD50; for Initial body weight: before treatment; for Ureic Nitrogen: urea content
# Protocol: The percent decrease of the body weight, the kidney weight and the ureic nitrogen excretion were determined for each treated group. The increase of kidney weight and the increase of ureic plasma content were assumed as nephrotoxic index of the compounds (see for example O. Tofanetti et al., "Tumori", 69, 105, 1983).
# [5] = Acute toxicity (LD50) in mouse; type: in vivo; conditions: intraperitoneal route
# [6] = system: genito-urinary tumors, head and neck cancer, osteogenic sarcoma; conditions: human, in vivo; cited from earlier work
# [7] = 19.3 × 10^-6/kg (BBR 1651 18.5 mg/kg)
# [8] = 28.95 × 10^-6/kg (BBR 1651 27.75 mg/kg)
# [9] = 1.93 × 10^-6 moles/kg (DHAQ.2HCl 1.0, BBR 1651 1.85 mg/kg)
# [10] = 3.86 × 10^-6 moles/kg (DHAQ.2HCl 2.0, BBR 1651 3.7 mg/kg)
# [11] = 7.73-8.68 × 10^-6 moles/kg (DHAQ.2HCl 4.0-4.5, BBR 1651 7.4-8.32 mg/kg)
# [12] = 12.93 × 10^-6 moles/kg (DHAQ.2HCl 6.7, BBR 1651 12.40 mg/kg)
# [13] = 19.3 × 10^-6 moles/kg (DHAQ.2HCl 10.0, BBR 1651 18.5 mg/kg)
# [14] = 1.93 × 10^-6 moles/kg (BBR 1734 1.55, BBR 1651 1.85, DHAQ.2HCl 1.00 mg/kg)
# [15] = 3.86 × 10^-6 moles/kg (BBR 1734 3.10, BBR 1651 3.70, DHAQ.2HCl 2.00 mg/kg)
# [16] = 7.73 × 10^-6 moles/kg (BBR 1734 6.20, BBR 1651 7.40, DHAQ.2HCl 4.00 mg/kg)
# [17] = 5.79 × 10^-6/kg (DHAQ-2HCl 3.0 mg/kg)
# [18] = 8.68 × 10^-6/kg (DHAQ-2HCl 4.5 mg/kg)
# [19] = 21 × 10^-6/kg (c-DDP 7.1 mg/kg)
# [20] = 29.6 × 10^-6/kg (c-DDP 10.0 mg/kg)
# [21] = 21 × 10^-6 moles/kg (c-DDP 7.00 mg/kg)
structure (smiles),measurement,setting,value
"CS(C)=O.CS(C)=O.Cl.Cl.O.O=C1c2c(O)ccc(O)c2C(=O)c2c(NCCNCCO)ccc(NCCNCCO)c21.[Cl][Pt][Cl] [BBR 1651, cis-[1,4-bis-[2-(2-hydroxyethylamino)ethylamino]-5,8-dihydroxy-9,10-anthracenedione. Pt(DMSO)Cl2].2HCl.H2 O]",LTS (2) (>30 days),[1]; [7],3/10
same,T/C (1) %,[1]; [7],186%
same,LTS (2) (>30 days),[1]; [8],4/10
same,activity (in words),[1],active drug
same,TOX (3),[1]; [7],0/10
same,TOX (3),[1]; [8],1/10
same,T/C,[2]; 1.39.10^-6 g/atom of Pt,200
same,LTS (2) (>60 days),[2]; [9],0/10
same,T/C (1) %,[2]; [9],200%
same,LTS (2) (>60 days),[2]; [10],1/10
same,T/C (1) %,[2]; [10],221%
same,LTS (2) (>60 days),[2]; [11],15/20
same,percentage of survivors at 60 days,[2],90%
same,LTS (2) (>60 days),[2]; [12],9/10
same,LTS (2) (>60 days),[2]; [13],9/10
same,longterms survivors (>60 days; i.e. cured animals),[2]; equal platinum content,9
same,increase of the dead animals before control animals,[2]; in words,did not cause any increase of the dead animals before control animals
same,activity compared with c-DDP (in words),"[2]; mouse, in vivo",extremely more active than the known c-DDP
same,TOX (3),[2]; [9],0/10
same,TOX (3),[2]; [10],0/10
same,TOX (3),[2]; [11],0/20
same,TOX (3),[2]; [12],0/10
same,% T/C,[3]; [14],195%
same,Survival after 60 days,[3]; [14],0/10
same,% T/C,[3]; [15],220%
same,Survival after 60 days,[3]; [15],1/10
same,Survival after 60 days,[3]; [16],7/10
same,antitumor activity (in words),[3],good activities with better results than those obtained using the known c-DDP and the aminoanthracenedione ligand alone
"Cl.Cl.O.O=C1c2c(O)ccc(O)c2C(=O)c2c3ccc(c21)NCC[NH+](CCO)[Pt-2]([Cl])([Cl])[NH+](CCO)CCN3 (stereo not drawn) [BBR 1734, cis-[1,4-bis-[2-(2-hydroxyethylamino)ethylamino]-5,8-dihydroxy-9,10-anthracenedione.PtCl2].2HCl.H2 O]",T/C percentage,[2],~200
same,% T/C,[3]; [14],200%
same,Survival after 60 days,[3]; [14],0/10
same,% T/C,[3]; [15],224%
same,Survival after 60 days,[3]; [15],1/10
same,Survival after 60 days,[3]; [16],7/10
same,antitumor activity (in words),[3],good activities with better results than those obtained using the known c-DDP and the aminoanthracenedione ligand alone
same,general toxicity / body weight (in words),[4],general toxicity as indicated by the decrease of the body weight
same,renal toxicity (in words),[4],do not impair the renal excretory function and/or change the relative kidney weight
same,% Δ of the body weight,[4],-20.4%
same,Final body weight,[4],28.4 ± 0.775
same,Kidney weight,[4],0.362 ± 0.012
same,Kidney weight g/100 of body weight,[4],1.282 ± 0.036 g/100 of body weight
same,Initial body weight,[4],34.2 ± 0.731
same,Ureic Nitrogen,[4],14.85 ± 0.866 100 mg/ml of plasma
same,Acute toxicity (LD50),[5],22.9 mg/kg
"Cl.Cl.O.O=C1c2ccccc2C(=O)c2c3ccc(c21)NCC[NH+](CCO)[Pt-2]([Cl])([Cl])[NH+](CCO)CCN3 (stereo not drawn) [BBR 1735, cis-[1,4-bis-[2-(2-hydroxyethylamino-ethyl)-amino]-9,10-anthracenedione.PtCl2].2HCl.H2 O]",T/C percentage,[2],~200
same,general toxicity / body weight (in words),[4],general toxicity as indicated by the decrease of the body weight
same,renal toxicity (in words),[4],do not impair the renal excretory function and/or change the relative kidney weight
same,% Δ of the body weight,[4],-5.4%
same,Final body weight,[4],33.1 ± 1.103
same,Kidney weight,[4],0.428 ± 0.02
same,Kidney weight g/100 of body weight,[4],1.293 ± 0.042 g/100 of body weight
same,Initial body weight,[4],34.9 ± 0.857
same,Ureic Nitrogen,[4],14.88 ± 0.565 100 mg/ml of plasma
same,Acute toxicity (LD50),[5],30.0 mg/kg
"O=C1c2c(O)ccc(O)c2C(=O)c2c(NCCNCCO)ccc(NCCNCCO)c21 [DHAQ.2HCl, 1,4-bis-[2-(2-hydroxyethylamino)ethylamino]-5,8-dihydroxy-9,10-anthracenedione]",LTS (2) (>30 days),[1]; [17],1/10
same,T/C (1) %,[1]; [17],145%
same,LTS (2) (>30 days),[1]; [18],2/10
same,T/C (1) %,[1]; [18],168%
same,TOX (3),[1]; [17],0/10
same,TOX (3),[1]; [18],0/10
same,LTS (2) (>60 days),[2]; [9],0/10
same,T/C (1) %,[2]; [9],185%
same,LTS (2) (>60 days),[2]; [10],0/10
same,T/C (1) %,[2]; [10],214%
same,T/C (1) %,"[2]; 7.73-8.68 × 10^-6 moles/kg (DHAQ.2HCl 4.0-4.5 mg/kg), range in parenthesis",302 (235-369) %
same,LTS (2) (>60 days),[2]; [11],8/20
same,percentage of survivors at 60 days,[2],10%
same,T/C (1) %,[2]; 12.93 × 10^-6 moles/kg (DHAQ.2HCl 6.7 mg/kg),262%
same,LTS (2) (>60 days),[2]; [12],4/10
same,T/C (1) %,[2]; 19.3 × 10^-6 moles/kg (DHAQ.2HCl 10.0 mg/kg),231%
same,LTS (2) (>60 days),[2]; [13],1/10
same,increase of death rate in comparison with the control animals,[2]; Higher doses of DHAQ,up to 90%
same,TOX (3),[2]; [9],0/10
same,TOX (3),[2]; [10],0/10
same,TOX (3),[2]; [11],2/20
same,TOX (3),[2]; [12],5/10
same,TOX (3),[2]; [13],9/10
same,% T/C,[3]; [14],185%
same,% T/C,[3]; [15],214%
same,Survival after 60 days,[3]; [15],0/10
same,Survival after 60 days,[3]; [16],2/10
same,% T/C,[3]; 7.73 × 10^-6 moles/kg (DHAQ.2HCl 4.00 mg/kg),235%
"N.N.[Cl][Pt][Cl] [c-DDP, cis-diaminodichloroplatinum^II]",LTS (2) (>30 days),[1]; [19],0/10
same,T/C (1) %,[1]; [19],100%
same,LTS (2) (>30 days),[1]; [20],0/10
same,T/C (1) %,[1]; [20],100%
same,activity (in words),[1],uneffective
same,LTS (2) (>60 days),[2]; 21 × 10^-6 moles/kg (c-DDP 7.1 mg/kg),0/20
same,T/C (1) %,"[2]; 21 × 10^-6 moles/kg (c-DDP 7.1 mg/kg), range in parenthesis",193 (187-200) %
same,T/C (1) %,"[2]; 21 × 10^-6 moles/kg (c-DDP 7.1 mg/kg), range in parenthesis, listed as cis-platin",193%
same,LTS (2) (>60 days),[2]; 29.2 × 10^-6 moles/kg (c-DDP 10.0 mg/kg),1/20
same,T/C (1) %,"[2]; 29.2 × 10^-6 moles/kg (c-DDP 10.0 mg/kg), range in parenthesis",93 (87-100) %
same,T/C percentage,[2],~200
same,clinical activity (in words),[6],activity is well demonstrated
same,serious side effects (in words),[6],"gastrointestinal (nausea and vomiting often severe and prolungated), renal (dose-limiting renal insufficiency), hematological, neurological (ototoxicity) complications"
same,% T/C,[3]; [21],200%
same,Survival after 60 days,[3]; [21],0/10
